Measured values as given in patent US10654867B2 (Genentech, Inc., priority 2016, dated 2020).

Molecular target: T1, estrogen receptor alpha (ESR1) in MCF7 breast cancer cells (Homo sapiens, UniProt P03372)
T1 sequence (P03372 1-595): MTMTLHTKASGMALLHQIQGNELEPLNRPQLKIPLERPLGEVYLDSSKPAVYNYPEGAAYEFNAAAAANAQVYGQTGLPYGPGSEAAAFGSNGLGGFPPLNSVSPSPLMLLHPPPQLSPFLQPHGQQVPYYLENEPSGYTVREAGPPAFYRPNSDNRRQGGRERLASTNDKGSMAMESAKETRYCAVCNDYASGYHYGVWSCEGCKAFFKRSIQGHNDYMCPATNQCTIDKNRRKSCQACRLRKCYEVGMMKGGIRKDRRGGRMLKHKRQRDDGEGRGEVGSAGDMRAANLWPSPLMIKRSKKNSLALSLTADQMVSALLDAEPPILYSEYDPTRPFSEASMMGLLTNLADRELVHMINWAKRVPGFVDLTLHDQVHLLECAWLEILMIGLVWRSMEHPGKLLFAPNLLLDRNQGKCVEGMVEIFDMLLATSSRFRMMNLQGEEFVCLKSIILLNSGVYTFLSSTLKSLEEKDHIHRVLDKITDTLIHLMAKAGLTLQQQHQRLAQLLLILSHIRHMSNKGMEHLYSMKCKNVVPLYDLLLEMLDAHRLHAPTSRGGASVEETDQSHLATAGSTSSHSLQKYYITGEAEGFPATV
Experiment: Breast Cancer Cell ERa High Content Fluorescence Imaging Degradation Assay (ER-alpha MCF7 HCS)
Type: cell-based
Parameters: endogenous in cells; host or cells: MCF7 breast cancer cells; key to ERalpha (WT) MCF7HCS (Sinf): % change in ERα level; DMSO = 0%, fulvestrant = 100% change
Conditions: 4 hours, plateau of the maximal effect; for ER-alpha MCF7HCS Sinf: DMSO and fulvestrant define 0% and 100% change in ESR1, Table 1a; for ERalpha (WT) MCF7HCS (Sinf): DMSO and fulvestrant define 0% and 100% change in ESR1, Table 1b
Procedure: All of the exemplary Formula I, II, and III compounds in Tables 1a and 1b were made and characterized by LCMS [M+H]^+ (liquid chromatography mass spectroscopy) with detection of parent ion. All of the exemplary Formula I, II, and III compounds in Tables 1a and 1b were tested for binding to ERa (Estrogen Receptor alpha) and biological activity according to the assays, protocols, and procedures of Examples 901-907. ER-alpha MCF7 HCS Sinf (%) values in Tables 1a and 1b were measured by the Breast Cancer Cell ERa High Content Fluorescence Imaging Degradation Assay of Example 901. ER-alpha MCF7 HCS EC50 (μM) values in Tables 1a and 1b were measured by the in vitro cell proliferation assays described in Examples 902 and 903. The rat uterine wet weight assays of Examples 906 and 907 allow rapid determination of compound antagonist activity in an ER responsive tissue (immature rat uterus) while competing against the native ER ligand estradiol, i.e. antagonist mode (Ashby, J.; et al (1997) Regulatory toxicology and pharmacology: RTP, 25 (3):226-31). Exemplary Formula I, II, and III compounds in Tables 1a and 1b have the following structures, corresponding names (ChemBioDraw, Version 12.0.2, CambridgeSoft Corp., Cambridge Mass.), and biological activity. Where more than one name is associated with a Formula I, II, and III compound or intermediate, the chemical structure shall define the compound.
MCF7 breast cancer cells were seeded on day 1 at a density of 10,000 cells per well in 384 well poly-lysine coated tissue culture plate (Greiner # T-3101-4), in 50 μL/well RPMI (phenol red free), 10% FBS (Charcoal stripped), containing L-glutamine. On day 2, compounds were prepared at 2 compound source concentrations: 100 μM and 1 μM (ultimately to give 2 overlapping titration curves), in a Labcyte low dead volume plate, 10 μL/well, and 10 μL of DMSO in designated wells for backfill, and 5 μM Fulvestrant (control compound) in designated wells. Compounds and controls were dispensed using a Labcyte Echo acoustic dispenser to dispense compounds with a predefined serial dilution (1.8×, 10 point, in duplicate) and appropriate backfill and control compounds (final total volume transferred was 417.5 nL and compound dispense volume ranges from 2.5 nL to 417.5 nL; 0.84% DMSO (v/v) final), ultimately producing a concentration range from 0.05 nM to 835 nM. Cell plates were incubated at 37° C., for 4 hours. Fixation and permeabilization were carried out using a Biotek EL406 plate washer and dispenser as follows. Cells were fixed by addition of 15 μL of 16% paraformaldehyde (Electron Microscopy Sciences #15710-S) directly to the 50 μL cell culture medium in each well using the peristaltic pump 5 μL cassette on a Biotek EL406 (final concentration of formaldehyde was 3.7% w/v). Samples were incubated 30 minutes. Well contents was aspirated and 50 μL/well of Phosphate Buffered Saline (PBS) containing 0.5% w/v bovine serum albumen, 0.5% v/v Triton X-100 (Antibody Dilution Buffer) was added to each well. Samples were incubated for 30 minutes. Well contents were aspirated and washed 3 times with 100 μL/well of PBS. Immunofluorescence staining of estrogen receptor alpha (ESR1) was carried out using a Biotek EL406 plate washer and dispenser as follows. The well supernatant was aspirated from the wells and 25 μL/well of anti-ESR1 mAb (F10) (Santa Cruz sc-8002) diluted 1:1000 in Antibody Dilution Buffer was dispensed. Samples were incubated for 2 hours at room temperature. Samples were washed 4 times with 100 μL/well of PBS. 25 uL (microliters)/well of secondary antibody solution (Alexafluor 488 conjugate anti-mouse IgG (LifeTechnologies # A21202) diluted 1:1000 and Hoechst 33342 1 μg/ml diluted in Antibody Dilution Buffer) were dispensed into each well. Samples were incubated for 2 hours at room temperature. Samples were washed 3 times with 100 μL/well of PBS using a Biotek EL406. Quantitative fluorescence imaging of ESR1 was carried out using a Cellomics Arrayscan V (Thermo). […]

| SMILES | ER-alpha MCF7HCS Sinf [%] | ERalpha (WT) MCF7HCS (Sinf) |
| --- | --- | --- |
| C[C@@H]1Cc2c(sc3ccccc23)[C@@H](c2c(F)cc(NC3CN(CCCF)C3)cc2F)N1CC(F)(F)CO (single isomer, unassigned) [Example 159] | −102 |  |
| C[C@H]1Cc2sc3ccccc3c2[C@@H](c2ccc(OCCN3CC(CF)C3)cc2)N1CC(C)(C)F [Example 131, (1R,3S)-2-(2-fluoro-2-methylpropyl)-1-(4-(2-(3-(fluoromethyl)azetidin-1-yl)ethoxy)phenyl)-3-methyl-1,2,3,4-tetrahydrobenzo[4,5]thieno[3,2-c]pyridine] | −99 |  |
| C[C@H]1Cc2sc3ccccc3c2[C@H](c2ccc(OCCN3CC(CF)C3)cc2)N1CC(C)(C)F [Example 129, (1S,3S)-2-(2-Fluoro-2-methylpropyl)-1-(4-(2-(3-(fluoromethyl)azetidin-1-yl)ethoxy)phenyl)-3-methyl-1,2,3,4-tetrahydrobenzo[4,5]thieno[3,2-c]pyridine] | −43.8 |  |
| C[C@@H]1Cc2[nH]c3ccccc3c2[C@@H](c2c(F)cc(OC3CN(CCCF)C3)cc2F)N1CC(F)(F)CO (relative stereo) [Example 144, trans-3-(1-(2,6-difluoro-4-(1-(3-fluoropropyl)azetidin-3-yloxy)phenyl)-3-methyl-3,4-dihydro-1H-pyrido[4,3-b]indol-2(5H)-yl)-2,2-difluoropropan-1-ol] | −98.8 |  |
| C[C@@H]1Cn2c(cc3ccccc32)[C@H](c2c(F)cc(NC3CN(CCCF)C3)cc2F)N1CC(F)(F)F [Example 145, N-(3,5-Difluoro-4-((1S,3R)-3-methyl-2-(2,2,2-trifluoroethyl)-1,2,3,4-tetrahydropyrazino[1,2-a]indol-1-yl)phenyl)-1-(3-fluoropropyl)azetidin-3-amine] | −87 |  |
| C[C@@H]1Cn2c(cc3ccccc32)[C@@H](c2c(F)cc(NC3CN(CCCF)C3)cc2F)N1CC(C)(C)F [Example 127, N-(3,5-Difluoro-4-((1R,3R)-2-(2-fluoro-2-methylpropyl)-3-methyl-1,2,3,4-tetrahydropyrazino[1,2-a]indol-1-yl)phenyl)-1-(3-fluoropropyl)azetidin-3-amine] | −100 |  |
| CC(C)(F)C(=O)N1CCCc2c([nH]c3ccccc23)[C@H]1c1c(F)cc(OCCN2CC(CF)C2)cc1F [Example 106, (R)-1-(1-(2,6-difluoro-4-(2-(3-(fluoromethyl)azetidin-1-yl)ethoxy)phenyl)-3,4,5,10-tetrahydroazepino[3,4-b]indol-2(1H)-yl)-2-fluoro-2-methylpropan-1-one] | −35 |  |
| C[C@H]1Cc2sc3ccccc3c2[C@H](c2c(F)cc(NC3CN(CCCF)C3)cc2F)N1CC(F)(F)CO [Example 165, 3-((1S,3S)-1-(2,6-difluoro-4-((1-(3-fluoropropyl)azetidin-3-yl)amino)phenyl)-3-methyl-3,4-dihydrobenzo[4,5]thieno[3,2-c]pyridin-2(1H)-yl)-2,2-difluoropropan-1-ol] |  | −92.3 |
| C[C@@H]1Cn2c(cc3ccccc32)[C@@H](c2c(F)cc(OC3CN(CCCF)C3)cc2F)N1CC(C)(C)F [Example 110, (1R,3R)-1-(2,6-Difluoro-4-((1-(3-fluoropropyl)azetidin-3-yl)oxy)phenyl)-2-(2-fluoro-2-methylpropyl)-3-methyl-1,2,3,4-tetrahydropyrazino[1,2-a]indole] | −100 |  |
| CC1Cc2[nH]c3ccccc3c2C(c2c(F)cc(NC3CN(CCCF)C3)cc2F)N1CCF (centres unmarked) [Example 149, (□)-N-(3,5-difluoro-4-(2-(2-fluoroethyl)-3-methyl-2,3,4,5-tetrahydro-1H-pyrido[4,3-b]indol-1-yl)phenyl)-1-(3-fluoropropyl) azetidin-3-amine] | −75 |  |
| C[C@@H]1Cn2c(cc3ccccc32)[C@@H](c2c(F)cc([C@H](O)C3CN(CCCF)C3)cc2F)N1CC(F)(F)CO (single isomer, unassigned) [Example 164] |  | −98.6 |
| C[C@H]1Cc2[nH]c3ccccc3c2[C@H](c2c(F)cc(OCCN3CC(CF)C3)cc2F)N1CC(F)(F)CO (single isomer, unassigned) [Example 148] | −79 |  |
| C[C@@H]1Cc2c([nH]c3ccccc23)[C@]2(CCc3cc(OCCN4CC(CF)C4)ccc32)N1CC(F)(F)F [Example 114, (1R,3′R)-5-(2-(3-(fluoromethyl)azetidin-1-yl)ethoxy)-3′-methyl-2′-(2,2,2-trifluoroethyl)-2,2′,3,3′,4′,9′-hexahydrospiro [indene-1,1′-pyrido [3,4-b]indole]] | −96.6 |  |
| C[C@@H]1Cc2sc3ccccc3c2[C@@H](c2c(F)cc(NC3CN(CCCF)C3)cc2F)N1CC(F)(F)CO [Example 166, 3-((1R,3R)-1-(2,6-difluoro-4-((1-(3-fluoropropyl)azetidin-3-yl)amino)phenyl)-3-methyl-3,4-dihydrobenzo[4,5]thieno[3,2-c]pyridin-2(1H)-yl)-2,2-difluoropropan-1-ol] |  | −101 |
| C[C@H]1CCN(CC(C)(C)F)[C@H](c2c(F)cc(OCCN3CC(CF)C3)cc2F)c2[nH]c3ccccc3c21 [Example 125, (1R,5S)-1-(2,6-difluoro-4-(2-(3-(fluoromethyl)azetidin-1-yl)ethoxy)phenyl)-2-(2-fluoro-2-methylpropyl)-5-methyl-1,2,3,4,5,10-hexahydroazepino[3,4-b]indole] | −101 |  |
| C[C@@H]1Cc2c([nH]c3ccccc23)[C@@](C)(c2ccc(OCCN3CC(CF)C3)cc2)N1CC(C)(C)F [Example 135, (1R,3R)-2-(2-Fluoro-2-methylpropyl)-1-(4-(2-(3-(fluoromethyl)azetidin-1-yl)ethoxy)phenyl)-1,3-dimethyl-2,3,4,9-tetrahydro-1H-pyrido[3,4-b]indole] | −95 |  |
| C[C@H]1CCN(CC(C)(C)F)[C@@H](c2c(F)cc(OCCN3CC(CF)C3)cc2F)c2[nH]c3ccccc3c21 [Example 124, (1S,5S)-1-(2,6-difluoro-4-(2-(3-(fluoromethyl)azetidin-1-yl)ethoxy)phenyl)-2-(2-fluoro-2-methylpropyl)-5-methyl-1,2,3,4,5,10-hexahydroazepino[3,4-b]indole] | −75 |  |
